Experimental findings from article PMC12693396, “Discovery of Influenza Neuraminidase Inhibitors: Structure-Based Virtual Screening and Biological Evaluation of Novel Chemotypes” (Molecules, 2025) are described below.

The structures appear in SMILES notation.

One series is described as follows: in vitro. To be noted: human.
In series [1] the target is recombinant Influenza A H1N1 (A/California/04/2009) neuraminidase (Influenza A virus (A/California/04/2009(H1N1)), UniProt C3W5S3). The experiment in a line: Fluorometric MUNANA neuraminidase inhibition assay (NA-Fluor kit). It counts as biochemical.

For the compound `COc1cc2c(cc1OC)C(C(C)C)N(S(N)(=O)=O)CC2` (stereo not shown) [Compound 6, 3,4-Dihydro-6,7-dimethoxy-1-(1-methylethyl)-2(1H)-isoquinolinesulfonamide], the CC50 at 24 h in the series “in vitro” was 534 µM.
A word on the IC50: it is the midpoint of a concentration-inhibition curve. Broadly, the inhibition is the change of the read-out against control, counted positive when it falls. For the compound `O=C(O)C1CCCN(C(=O)c2c[nH]c3ccccc23)C1` (stereo not shown) [Compound 1, 1-(1H-Indol-3-ylcarbonyl)-3-piperidinecarboxylic acid], the IC50 in series [1] was more than 1000 µM. Besides, the inhibition at 100 µM in series [1] (read-out: mean inhibition of NA activity, at 100 µM) is more than 15%.
On to `CCOC(=O)C1=C[C@@H](OC(CC)CC)[C@H](NC(C)=O)[C@@H](N)C1` [oseltamivir, Oseltamivir phosphate, reference compound], for which, in series [1] (0.1 µM), the “inhibition of NA activity” value is “approximately 20%”.
As for `COc1ccc([C@H]2[C@@H](C(=O)O)c3ccccc3C(=O)N2Cc2ccc(Cl)cc2)cc1` [Compound 5, (3R,4S)-2-[(4-Chlorophenyl)methyl]-1,2,3,4-tetrahydro-3-(4-methoxyphenyl)-1-oxo-4-isoquinolinecarboxylic acid], the CC50 at 24 h in “in vitro” amounted to 152 µM.
Compound `O=C(O)CCC(=O)c1c[nH]c2ccccc12` [Compound 3, γ-Oxo-1H-indole-3-butanoic acid] registered a CC50 at 24 h in “in vitro” of 671 µM.
On to `COc1cccc2[nH]cc(C(=O)O)c12` [Compound 4, 4-Methoxy-1H-indole-3-carboxylic acid], for which the CC50 at 24 h in “in vitro” was determined as 244 µM.
